Test results: the OligoGym collection
“And” between values parts separate entries of the source, which are not always exact repeats. Identical values can stand only once. After the bases stand the sugars from the 5' end (letter, count) and the backbone: PS all phosphorothioate, else s phosphorothioate and o phosphodiester by linkage. HELM strings list units from the 5' end as sugar, base in round brackets, then linkage (d deoxyribose, r ribose, m 2'-O-methyl, p phosphodiester). Methylation of C is not given here. [moe] = 2'-O-(2-methoxyethyl) (MOE); [sp] = phosphorothioate linkage; e = 2'-O-(2-methoxyethyl) (MOE); k = constrained ethyl (cEt); d = 2'-deoxy (DNA)

Assays:
IRF5 = conditions: ASO
HBV = conditions: ASO

Substance | target mRNA inhibition (IRF5; KARPAS-229, 4 µM) | other results
AAGATGGTGTTATCTC (sugars k3 d10 k3, PS) | 0% | –
AAGGGCACAGACGCAGG (sugars k3 d10 k3 d1, PS) | 0% | –
AAGGGCACAGCGCAGG (sugars k2 d11 k3, PS) | 0% and 2% | –
AAGGGCACAGCGCAGG (sugars kddddddddddkekek, PS) | 0% | –
AAGGGCACAGCGCAGG (sugars kkdddddddddkekek, PS) | 0% | –
ACATCTCCACATCAGT (sugars k2 d8 e4 k2, PS) | 24% | –
ACATCTCCACATCAGT (sugars kkdddddddddkekek, PS) | 16% | –
ACCACTGTGTACCCCA (sugars k3 d9 k3 e1, PS) | 47% | –
ACCACTGTGTACCCCA (sugars kddddddddddkekek, PS) | 43% | –
ACCATTCTATGCCTTT (sugars k3 d9 k3 e1, PS) | 59% and 61% | target mRNA inhibition (IRF5; KARPAS-229, 0.44444 µM): 33%; target mRNA inhibition (IRF5; KARPAS-229, 1.33333 µM): 56%; target mRNA inhibition (IRF5; KARPAS-229, 12 µM): 75%
ACCATTCTATGCCTTT (sugars kekdddddddddeekk, PS) | 51% | –
ACCATTCTATGCCTTT (sugars kkkddddddddkdkdk, PS) | 11% | –
ACTGACACAGGCGGAT (sugars k3 d9 k3 e1, PS) | 0% | –
ACTGACACAGGCGGAT (sugars kkkddddddddkekek, PS) | 0% | –
AGATGGTGTTATCTCC (sugars k3 d10 k3, PS) | 0% | –
AGATGGTGTTATCTCC (sugars kkddddddddddkeke, PS) | 0% | –
AGATGGTGTTATCTCC (sugars kkkdddddddddkeke, PS) | 8% | –
AGATGGTGTTATCTCC (sugars kkkddddddddkdkdk, PS) | 0% | –
AGCTTGGTCTTGACCT (sugars k3 d9 k3 e1, PS) | 10% | –
AGCTTGGTCTTGACCT (sugars kkkdddddddddkeke, PS) | 26% | –
AGCTTTCTTGTCTAGT (sugars k3 d10 k3, PS) | 20% | –
AGGAAGTGAGTCTCAA (sugars kdddddddddkekeke, PS) | 23% | –
AGGAGTGAGACGAGCA (sugars kkddddddddddkeke, PS) | 28% | –
AGGTTCTTGGACTCTC (sugars k3 d10 k3, PS) | 0% | –
AGGTTCTTGGACTCTC (sugars kdddddddddkekeke, PS) | 0% | –

Substance | target mRNA inhibition (IRF5; KARPAS-229, 4 µM) | other results
AGGTTCTTGGACTCTC (sugars kkdddddddddkdkdk, PS) | 36% | –
AGGTTCTTGGACTCTC (sugars kkkddddddddkekek, PS) | 8% | –
AGTAGGACGAGTTATG (sugars k3 d10 k3, PS) | 0% | –
AGTGAGACGAGCAAAG (sugars k3 d10 k3, PS) | 16% | –
ATACCCAATGCAACAT (sugars k3 d10 k3, PS) | 1% | –
ATCTGATATGATACCT (sugars k3 d10 k3, PS) | 36% | –
ATGAGTAATAGGAGTG (sugars k3 d10 k3, PS) | 56% and 52% | target mRNA inhibition (IRF5; KARPAS-229, 0.44444 µM): 15%; target mRNA inhibition (IRF5; KARPAS-229, 1.33333 µM): 46%; target mRNA inhibition (IRF5; KARPAS-229, 12 µM): 70%
ATGAGTCATGGGCTGA (sugars kkkddddddddkekek, PS) | 0% | –
ATGCAACATCCATCAA (sugars k3 d10 k3, PS) | 0% | –
CAATGCAACATCCATC (sugars kddddddddddkekek, PS) | 0% | –
CACATCTCCACATCAG (sugars kkddddddddkekekk, PS) | 17% | –
CACATCTCCACATCAG (sugars kkkddddddddkekek, PS) | 43% | –
CACCACTGTGTACCCC (sugars kddddddddddkekek, PS) | 0% | –
CACTGACACAGGCGGA (sugars kkkdddddddddkeke, PS) | 0% | –
CAGGGAGTCAGACCTA (sugars k3 d10 k3, PS) | 0% | –
CAGGTTCTTGGACTCT (sugars k3 d9 k3 e1, PS) | 0% | –
CAGGTTCTTGGACTCT (sugars kkddddddddddkeke, PS) | 28% | –
CATTCTATGCCTTTTA (sugars k3 d10 k3, PS) | 24% | –
CATTCTATGCCTTTTA (sugars kddddddddddkekek, PS) | 37% | –
CATTCTATGCCTTTTA (sugars kdddddddddkekeke, PS) | 13% | –
CCAATGCAACATCCAT (sugars kkkddddddddkekek, PS) | 0% | –
CCAATTTTGCATTCCA (sugars kkdddddddddkdkdk, PS) | 42% | –
CCAATTTTGCATTCCA (sugars kkddddddddkekekk, PS) | 39% | –
CCACTGTGTACCCCAT (sugars k2 d8 e4 k2, PS) | 44% | –
CCACTGTGTACCCCAT (sugars k2 d9 e3 k2, PS) | 64% | –

Substance | target mRNA inhibition (IRF5; KARPAS-229, 4 µM) | other results
CCATTCTATGCCTTTT (sugars k2 d8 e4 k2, PS) | 17% | –
CCATTCTATGCCTTTT (sugars k2 d9 e3 k2, PS) | 50% | –
CCATTCTATGCCTTTT (sugars k3 d9 k3 e1, PS) | 58% and 70% | target mRNA inhibition (IRF5; KARPAS-229, 0.44444 µM): 31%; target mRNA inhibition (IRF5; KARPAS-229, 1.33333 µM): 44%; target mRNA inhibition (IRF5; KARPAS-229, 12 µM): 78%
CCCAATGCAACATCCA (sugars k3 d9 k3 e1, PS) | 0% | –
CCCAATGCAACATCCA (sugars kddddddddddkekek, PS) | 0% | –
CCCAATGCAACATCCA (sugars kekdddddddddeekk, PS) | 0% | –
CCCAATGCAACATCCA (sugars kkddddddddddkeke, PS) | 0% | –
CCTATACAGCTAGGCC (sugars k3 d10 k3, PS) | 0% | –
CCTTCTGCAGGGAGTC (sugars kkddddddddkekekk, PS) | 0% | –
CGGTCTTTGAGGTCTG (sugars k3 d9 k3 e1, PS) | 32% | –
CGGTCTTTGAGGTCTG (sugars k3 d10 k3, PS) | 32% | –
RNA1{[moe](T)[sp].[moe](G)[sp].[moe](C)[sp].d(A)[sp].d(G)[sp].d(A)[sp].d(G)[sp].d(G)[sp].d(T)[sp].d(G)[sp].d(A)[sp].d(A)[sp].[moe](G)[sp].[moe](C)[sp].[moe](G)[sp].[moe](A)}$$$$V2.0 | – | target mRNA inhibition (HBV; HepG2, 0.07 µM): 51% and 56%
RNA1{[moe](T)[sp].[moe](G)[sp].[moe](G)[sp].[moe](A)[sp].[moe](G)[sp].d(C)[sp].d(C)[sp].d(A)[sp].d(C)[sp].d(C)[sp].d(A)[sp].d(G)[sp].d(C)[sp].d(A)[sp].[moe](G)[sp].[moe](G)}$$$$V2.0 | – | target mRNA inhibition (HBV; HepG2, 0.07 µM): 33% and 32%
RNA1{[moe](T)[sp].[moe](G)[sp].d(A)[sp].d(A)[sp].d(G)[sp].d(C)[sp].d(G)[sp].d(A)[sp].d(A)[sp].d(G)[sp].d(T)[sp].[moe](G)[sp].[moe](C)[sp].[moe](A)[sp].[moe](C)[sp].[moe](A)[sp].[moe](C)}$$$$V2.0 | – | target mRNA inhibition (HBV; HepG2, 0.07 µM): 81% and 79%
RNA1{[moe](T)[sp].[moe](G)[sp].d(A)[sp].d(G)[sp].d(G)[sp].d(C)[sp].d(A)[sp].d(T)[sp].d(A)[sp].d(G)[sp].d(C)[sp].[moe](A)[sp].[moe](G)[sp].[moe](C)[sp].[moe](A)[sp].[moe](G)}$$$$V2.0 | – | target mRNA inhibition (HBV; HepG2, 0.07 µM): 59% and 52%
RNA1{[moe](T)[sp].[moe](T)[sp].[moe](A)[sp].[moe](T)[sp].d(G)[sp].d(C)[sp].d(C)[sp].d(T)[sp].d(A)[sp].d(C)[sp].d(A)[sp].d(G)[sp].d(C)[sp].[moe](C)[sp].[moe](T)[sp].[moe](C)[sp].[moe](C)}$$$$V2.0 | – | target mRNA inhibition (HBV; HepG2, 0.07 µM): 52% and 34%
RNA1{[moe](T)[sp].[moe](T)[sp].[moe](A)[sp].[moe](T)[sp].d(G)[sp].d(C)[sp].d(C)[sp].d(T)[sp].d(A)[sp].d(C)[sp].d(A)[sp].d(G)[sp].d(C)[sp].[moe](C)[sp].[moe](T)[sp].[moe](C)}$$$$V2.0 | – | target mRNA inhibition (HBV; HepG2, 0.07 µM): 42% and 46%
RNA1{[moe](T)[sp].[moe](T)[sp].[moe](A)[sp].d(T)[sp].d(G)[sp].d(C)[sp].d(C)[sp].d(T)[sp].d(A)[sp].d(C)[sp].d(A)[sp].d(G)[sp].[moe](C)[sp].[moe](C)[sp].[moe](T)[sp].[moe](C)}$$$$V2.0 | – | target mRNA inhibition (HBV; HepG2, 0.07 µM): 51% and 41%
RNA1{[moe](T)[sp].[moe](T)[sp].[moe](C)[sp].[moe](C)[sp].[moe](G)[sp].[moe](C)[sp].d(A)[sp].d(G)[sp].d(T)[sp].d(A)[sp].d(T)[sp].d(G)[sp].d(G)[sp].d(A)[sp].d(T)[sp].[moe](C)[sp].[moe](G)}$$$$V2.0 | – | target mRNA inhibition (HBV; HepG2, 0.07 µM): 45% and 53%
RNA1{[moe](T)[sp].[moe](T)[sp].[moe](C)[sp].d(C)[sp].d(G)[sp].d(C)[sp].d(A)[sp].d(G)[sp].d(T)[sp].d(A)[sp].d(T)[sp].d(G)[sp].[moe](G)[sp].[moe](A)[sp].[moe](T)[sp].[moe](C)[sp].[moe](G)}$$$$V2.0 | – | target mRNA inhibition (HBV; HepG2, 0.07 µM): 73% and 60%
RNA1{[moe](T)[sp].[moe](T)[sp].d(C)[sp].d(C)[sp].d(G)[sp].d(C)[sp].d(A)[sp].d(G)[sp].d(T)[sp].d(A)[sp].d(T)[sp].[moe](G)[sp].[moe](G)[sp].[moe](A)[sp].[moe](T)[sp].[moe](C)}$$$$V2.0 | – | target mRNA inhibition (HBV; HepG2, 0.07 µM): 62% and 50%
RNA1{[moe](T)[sp].[moe](T)[sp].d(T)[sp].d(A)[sp].d(T)[sp].d(G)[sp].d(C)[sp].d(C)[sp].d(T)[sp].d(A)[sp].d(C)[sp].[moe](A)[sp].[moe](G)[sp].[moe](C)[sp].[moe](C)[sp].[moe](T)[sp].[moe](C)}$$$$V2.0 | – | target mRNA inhibition (HBV; HepG2, 0.07 µM): 64% and 54%
RNA1{d(C)[sp].d(C)[sp].d(A)[sp].d(A)[sp].d(A)[sp].d(G)[sp].d(C)[sp].d(C)[sp].d(A)[sp].d(C)[sp].d(C)[sp].d(C)[sp].d(A)[sp].d(A)[sp].d(G)[sp].d(G)}$$$$V2.0 | – | target mRNA inhibition (HBV; HepG2, 0.01875 µM): 4% and 0%; target mRNA inhibition (HBV; HepG2, 0.0375 µM): 0%; target mRNA inhibition (HBV; HepG2, 0.075 µM): 0%; target mRNA inhibition (HBV; HepG2, 0.15 µM): 3% and 0%; target mRNA inhibition (HBV; HepG2, 0.3 µM): 13%
